Measurements: ChEMBL document CHEMBL5696442, “Discovery of type II inhibitors of TGFβ-activated kinase 1 (TAK1) and mitogen-activated protein kinase kinase kinase kinase 2 (MAP4K2)” (J Med Chem, 2015)
The source made the active and inactive calls. No cut-off for these calls is given here.

Assays:
[1] = biological target: Calcium/calmodulin-dependent protein kinase type II subunit delta (Homo sapiens) (UniProt Q13557); assay: Inhibition of CaMK2d Lys1 labeling site harbouring IPTGQEYAAKIINTK in human Huh-7 cell lysate at 1 uM by KiNativ Profiling analysis relative to control; format: subcellular
Chain of Calcium/calmodulin-dependent protein kinase type II subunit delta (Homo sapiens) (Q13557 whole entry): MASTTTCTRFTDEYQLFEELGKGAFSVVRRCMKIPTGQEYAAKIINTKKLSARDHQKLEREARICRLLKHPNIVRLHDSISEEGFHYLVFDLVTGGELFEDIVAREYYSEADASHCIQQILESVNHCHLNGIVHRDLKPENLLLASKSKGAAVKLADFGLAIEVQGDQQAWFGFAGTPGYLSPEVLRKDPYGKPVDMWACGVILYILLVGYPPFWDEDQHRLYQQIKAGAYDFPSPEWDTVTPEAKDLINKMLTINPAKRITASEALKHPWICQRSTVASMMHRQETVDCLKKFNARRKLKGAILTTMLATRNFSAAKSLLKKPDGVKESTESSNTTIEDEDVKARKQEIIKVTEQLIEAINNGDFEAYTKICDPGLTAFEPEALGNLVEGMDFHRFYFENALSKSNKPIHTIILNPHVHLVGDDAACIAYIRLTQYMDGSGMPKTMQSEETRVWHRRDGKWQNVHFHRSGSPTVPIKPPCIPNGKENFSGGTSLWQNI

[2] = biological target: Rho-associated protein kinase 2 (Homo sapiens) (UniProt O75116); assay: Inhibition of ROCK2 Lys2 labeling site in human Huh-7 cells at 1 uM by KiNativ Profiling analysis relative to control; format: cell-based
[3] = biological target: Bone morphogenetic protein receptor type-2 (Homo sapiens) (UniProt Q13873); assay: Inhibition of BMPR2 (unknown origin) at 10 uM by Ambit Kinomescan binding assay
Chain of Bone morphogenetic protein receptor type-2 (Homo sapiens) (Q13873 whole entry): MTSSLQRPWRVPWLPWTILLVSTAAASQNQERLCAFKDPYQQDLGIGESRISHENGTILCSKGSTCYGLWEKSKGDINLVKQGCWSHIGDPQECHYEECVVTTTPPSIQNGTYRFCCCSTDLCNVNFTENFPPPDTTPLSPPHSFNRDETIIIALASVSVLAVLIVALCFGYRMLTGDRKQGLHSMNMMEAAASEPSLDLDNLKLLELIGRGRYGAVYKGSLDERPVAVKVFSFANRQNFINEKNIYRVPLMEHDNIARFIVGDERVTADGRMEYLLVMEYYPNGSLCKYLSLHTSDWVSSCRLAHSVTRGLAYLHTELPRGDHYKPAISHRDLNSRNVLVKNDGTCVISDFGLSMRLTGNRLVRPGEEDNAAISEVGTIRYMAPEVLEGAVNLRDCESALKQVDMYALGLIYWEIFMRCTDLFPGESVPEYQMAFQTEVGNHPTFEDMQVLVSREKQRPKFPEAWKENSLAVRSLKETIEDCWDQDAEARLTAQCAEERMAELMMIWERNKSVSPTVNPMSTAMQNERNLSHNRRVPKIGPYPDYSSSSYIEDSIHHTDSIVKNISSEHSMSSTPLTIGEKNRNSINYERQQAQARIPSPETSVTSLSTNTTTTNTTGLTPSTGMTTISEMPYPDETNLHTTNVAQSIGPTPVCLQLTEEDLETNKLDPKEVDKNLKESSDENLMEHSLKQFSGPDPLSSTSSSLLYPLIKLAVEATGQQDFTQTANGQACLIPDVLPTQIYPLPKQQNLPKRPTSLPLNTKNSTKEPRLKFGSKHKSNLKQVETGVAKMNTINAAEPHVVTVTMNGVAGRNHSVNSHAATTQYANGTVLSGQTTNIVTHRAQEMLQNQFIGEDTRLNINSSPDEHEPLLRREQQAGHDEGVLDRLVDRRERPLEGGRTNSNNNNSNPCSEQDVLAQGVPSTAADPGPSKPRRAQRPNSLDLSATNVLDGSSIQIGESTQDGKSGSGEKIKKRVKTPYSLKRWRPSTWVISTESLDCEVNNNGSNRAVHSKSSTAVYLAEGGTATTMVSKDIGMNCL

[4] = biological target: Tyrosine-protein kinase ABL (Homo sapiens) (UniProt P00519+P42684); assay: Inhibition of ABL1/2 ACT labeling site in human Huh-7 cells at 10 uM by KiNativ Profiling analysis relative to control; format: cell-based
Chain of Tyrosine-protein kinase ABL (Homo sapiens) (P00519 whole entry, looked up): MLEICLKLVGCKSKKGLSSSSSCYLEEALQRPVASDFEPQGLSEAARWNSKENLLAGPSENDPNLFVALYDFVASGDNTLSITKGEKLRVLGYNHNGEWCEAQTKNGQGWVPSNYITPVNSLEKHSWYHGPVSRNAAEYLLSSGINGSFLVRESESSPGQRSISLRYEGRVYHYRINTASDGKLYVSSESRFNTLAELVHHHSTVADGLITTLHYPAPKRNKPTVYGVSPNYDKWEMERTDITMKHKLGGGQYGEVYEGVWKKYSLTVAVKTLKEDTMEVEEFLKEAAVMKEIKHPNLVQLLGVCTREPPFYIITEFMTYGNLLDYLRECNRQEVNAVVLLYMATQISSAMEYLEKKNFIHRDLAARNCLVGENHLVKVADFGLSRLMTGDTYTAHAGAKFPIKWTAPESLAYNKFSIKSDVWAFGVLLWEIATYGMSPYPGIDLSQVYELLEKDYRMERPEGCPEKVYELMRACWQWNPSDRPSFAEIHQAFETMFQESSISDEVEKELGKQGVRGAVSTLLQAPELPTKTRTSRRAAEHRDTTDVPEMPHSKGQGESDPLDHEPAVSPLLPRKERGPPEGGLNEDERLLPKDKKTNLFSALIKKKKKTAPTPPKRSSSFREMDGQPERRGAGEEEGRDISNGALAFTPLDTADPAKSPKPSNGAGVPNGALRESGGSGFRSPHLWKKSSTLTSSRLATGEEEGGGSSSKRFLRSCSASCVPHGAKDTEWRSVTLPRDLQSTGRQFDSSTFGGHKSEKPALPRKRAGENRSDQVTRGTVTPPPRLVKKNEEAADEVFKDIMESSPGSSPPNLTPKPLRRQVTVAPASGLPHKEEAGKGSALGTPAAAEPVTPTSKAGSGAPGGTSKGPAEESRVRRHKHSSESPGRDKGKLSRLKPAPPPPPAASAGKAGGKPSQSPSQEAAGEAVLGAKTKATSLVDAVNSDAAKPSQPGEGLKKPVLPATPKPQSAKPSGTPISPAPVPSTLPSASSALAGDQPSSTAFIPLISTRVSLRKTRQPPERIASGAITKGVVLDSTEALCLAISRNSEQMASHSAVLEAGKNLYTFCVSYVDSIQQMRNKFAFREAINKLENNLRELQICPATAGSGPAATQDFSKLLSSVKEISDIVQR
Chain of Tyrosine-protein kinase ABL (Homo sapiens) (P42684 whole entry, looked up): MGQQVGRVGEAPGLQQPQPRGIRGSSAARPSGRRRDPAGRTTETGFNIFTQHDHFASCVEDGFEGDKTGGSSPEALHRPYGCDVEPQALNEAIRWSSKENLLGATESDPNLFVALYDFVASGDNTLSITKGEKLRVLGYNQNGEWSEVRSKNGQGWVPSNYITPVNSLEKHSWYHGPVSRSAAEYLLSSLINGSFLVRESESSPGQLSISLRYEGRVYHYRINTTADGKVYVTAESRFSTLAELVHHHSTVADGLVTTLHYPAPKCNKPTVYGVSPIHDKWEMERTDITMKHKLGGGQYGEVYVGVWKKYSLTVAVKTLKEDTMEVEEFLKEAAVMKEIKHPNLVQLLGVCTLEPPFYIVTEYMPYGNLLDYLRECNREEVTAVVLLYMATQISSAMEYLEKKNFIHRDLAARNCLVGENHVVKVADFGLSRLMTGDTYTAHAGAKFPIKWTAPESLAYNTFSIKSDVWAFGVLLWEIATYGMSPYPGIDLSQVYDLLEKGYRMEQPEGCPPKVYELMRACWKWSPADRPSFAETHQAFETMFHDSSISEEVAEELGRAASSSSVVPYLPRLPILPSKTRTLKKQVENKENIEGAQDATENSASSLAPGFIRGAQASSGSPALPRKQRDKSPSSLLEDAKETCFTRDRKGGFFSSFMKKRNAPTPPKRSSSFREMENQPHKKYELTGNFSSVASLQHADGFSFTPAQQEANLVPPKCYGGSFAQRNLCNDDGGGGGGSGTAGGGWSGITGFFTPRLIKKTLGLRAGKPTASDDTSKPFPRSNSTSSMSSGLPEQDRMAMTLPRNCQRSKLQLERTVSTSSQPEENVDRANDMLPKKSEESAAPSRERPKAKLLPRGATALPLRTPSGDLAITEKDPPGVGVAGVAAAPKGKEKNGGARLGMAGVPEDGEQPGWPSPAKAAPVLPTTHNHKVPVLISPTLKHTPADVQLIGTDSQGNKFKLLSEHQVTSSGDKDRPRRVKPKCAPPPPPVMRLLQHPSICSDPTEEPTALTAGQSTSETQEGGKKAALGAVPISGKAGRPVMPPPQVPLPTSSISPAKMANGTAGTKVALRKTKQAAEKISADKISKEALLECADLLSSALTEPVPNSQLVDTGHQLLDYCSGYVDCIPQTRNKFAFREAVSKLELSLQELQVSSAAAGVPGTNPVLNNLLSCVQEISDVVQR

[5] = biological target: AMPK alpha1/alpha2 (Homo sapiens) (UniProt P54646+Q13131); assay: Inhibition of AMPK alpha 1/2 K1 labeling site in human Huh-7 cells at 10 uM by KiNativ Profiling analysis relative to control; format: cell-based
[6] = biological target: T1, Mitogen-activated protein kinase kinase kinase 6 (Homo sapiens) (UniProt O95382); assay: Inhibition of MAP3K6 Lys1 labeling site harbouring IAIKEIPER in human A-375 cells at 0.05 uM by KiNativ Profiling analysis relative to control; format: cell-based
T1 sequence (whole entry): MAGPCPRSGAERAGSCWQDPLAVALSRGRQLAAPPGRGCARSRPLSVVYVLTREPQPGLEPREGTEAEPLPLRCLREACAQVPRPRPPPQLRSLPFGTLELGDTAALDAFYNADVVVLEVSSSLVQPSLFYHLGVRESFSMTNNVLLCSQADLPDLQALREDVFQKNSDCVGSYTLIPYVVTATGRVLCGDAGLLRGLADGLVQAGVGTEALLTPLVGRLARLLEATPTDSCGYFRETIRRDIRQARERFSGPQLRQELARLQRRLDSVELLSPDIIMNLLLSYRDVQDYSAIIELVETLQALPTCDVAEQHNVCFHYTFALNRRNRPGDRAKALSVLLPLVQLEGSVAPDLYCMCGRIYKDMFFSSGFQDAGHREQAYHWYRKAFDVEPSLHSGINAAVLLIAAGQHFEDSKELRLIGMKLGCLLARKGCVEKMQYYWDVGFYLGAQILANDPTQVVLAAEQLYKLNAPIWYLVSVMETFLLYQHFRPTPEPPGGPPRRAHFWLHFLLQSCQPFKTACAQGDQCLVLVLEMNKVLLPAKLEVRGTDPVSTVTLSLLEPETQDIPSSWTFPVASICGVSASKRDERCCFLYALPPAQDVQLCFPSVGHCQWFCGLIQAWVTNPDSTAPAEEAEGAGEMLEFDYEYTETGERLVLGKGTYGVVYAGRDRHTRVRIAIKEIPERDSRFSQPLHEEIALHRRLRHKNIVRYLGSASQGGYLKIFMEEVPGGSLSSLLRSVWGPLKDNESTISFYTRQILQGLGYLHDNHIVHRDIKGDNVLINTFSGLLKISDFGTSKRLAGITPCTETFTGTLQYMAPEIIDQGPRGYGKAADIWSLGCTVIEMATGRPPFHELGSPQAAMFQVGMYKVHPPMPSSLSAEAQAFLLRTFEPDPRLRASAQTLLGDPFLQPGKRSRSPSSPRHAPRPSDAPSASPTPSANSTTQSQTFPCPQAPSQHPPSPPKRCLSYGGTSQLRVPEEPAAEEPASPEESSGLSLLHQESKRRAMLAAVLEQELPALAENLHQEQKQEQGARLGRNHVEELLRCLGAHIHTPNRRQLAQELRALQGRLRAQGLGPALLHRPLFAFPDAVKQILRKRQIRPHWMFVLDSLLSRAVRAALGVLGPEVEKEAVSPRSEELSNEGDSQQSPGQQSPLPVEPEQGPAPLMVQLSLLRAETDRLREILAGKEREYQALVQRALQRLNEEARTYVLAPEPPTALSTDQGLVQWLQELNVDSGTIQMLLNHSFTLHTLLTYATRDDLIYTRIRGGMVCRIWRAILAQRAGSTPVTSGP

[7] = Inhibition of KHS1 (unknown origin) Lys1 labeling site by KiNativ Profiling analysis; parameters: species or system Homo sapiens
[8] = biological target: Serine/threonine-protein kinase VRK2 (Homo sapiens) (UniProt Q86Y07); assay: Inhibition of VRK2 (unknown origin) at 1 uM by Ambit Kinomescan binding assay relative to control
Chain of Serine/threonine-protein kinase VRK2 (Homo sapiens) (Q86Y07 whole entry): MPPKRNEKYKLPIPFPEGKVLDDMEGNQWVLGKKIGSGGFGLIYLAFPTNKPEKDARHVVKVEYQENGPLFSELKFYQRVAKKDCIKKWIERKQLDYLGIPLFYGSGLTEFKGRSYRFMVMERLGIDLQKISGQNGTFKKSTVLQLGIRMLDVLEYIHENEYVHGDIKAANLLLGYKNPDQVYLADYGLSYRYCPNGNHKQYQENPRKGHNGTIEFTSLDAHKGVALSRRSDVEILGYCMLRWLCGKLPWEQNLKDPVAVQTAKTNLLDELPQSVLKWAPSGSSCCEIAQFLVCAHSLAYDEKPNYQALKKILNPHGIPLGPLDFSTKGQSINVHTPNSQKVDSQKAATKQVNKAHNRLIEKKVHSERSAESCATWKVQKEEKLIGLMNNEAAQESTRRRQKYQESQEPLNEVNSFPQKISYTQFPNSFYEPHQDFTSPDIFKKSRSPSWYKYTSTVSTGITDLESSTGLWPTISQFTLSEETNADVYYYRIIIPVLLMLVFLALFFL

[9] = biological target: T2, Serine/threonine-protein kinase LATS1 (Homo sapiens) (UniProt O95835); assay: Inhibition of LATS1 (unknown origin) at 1 uM by Ambit Kinomescan binding assay relative to control
T2 sequence (whole entry): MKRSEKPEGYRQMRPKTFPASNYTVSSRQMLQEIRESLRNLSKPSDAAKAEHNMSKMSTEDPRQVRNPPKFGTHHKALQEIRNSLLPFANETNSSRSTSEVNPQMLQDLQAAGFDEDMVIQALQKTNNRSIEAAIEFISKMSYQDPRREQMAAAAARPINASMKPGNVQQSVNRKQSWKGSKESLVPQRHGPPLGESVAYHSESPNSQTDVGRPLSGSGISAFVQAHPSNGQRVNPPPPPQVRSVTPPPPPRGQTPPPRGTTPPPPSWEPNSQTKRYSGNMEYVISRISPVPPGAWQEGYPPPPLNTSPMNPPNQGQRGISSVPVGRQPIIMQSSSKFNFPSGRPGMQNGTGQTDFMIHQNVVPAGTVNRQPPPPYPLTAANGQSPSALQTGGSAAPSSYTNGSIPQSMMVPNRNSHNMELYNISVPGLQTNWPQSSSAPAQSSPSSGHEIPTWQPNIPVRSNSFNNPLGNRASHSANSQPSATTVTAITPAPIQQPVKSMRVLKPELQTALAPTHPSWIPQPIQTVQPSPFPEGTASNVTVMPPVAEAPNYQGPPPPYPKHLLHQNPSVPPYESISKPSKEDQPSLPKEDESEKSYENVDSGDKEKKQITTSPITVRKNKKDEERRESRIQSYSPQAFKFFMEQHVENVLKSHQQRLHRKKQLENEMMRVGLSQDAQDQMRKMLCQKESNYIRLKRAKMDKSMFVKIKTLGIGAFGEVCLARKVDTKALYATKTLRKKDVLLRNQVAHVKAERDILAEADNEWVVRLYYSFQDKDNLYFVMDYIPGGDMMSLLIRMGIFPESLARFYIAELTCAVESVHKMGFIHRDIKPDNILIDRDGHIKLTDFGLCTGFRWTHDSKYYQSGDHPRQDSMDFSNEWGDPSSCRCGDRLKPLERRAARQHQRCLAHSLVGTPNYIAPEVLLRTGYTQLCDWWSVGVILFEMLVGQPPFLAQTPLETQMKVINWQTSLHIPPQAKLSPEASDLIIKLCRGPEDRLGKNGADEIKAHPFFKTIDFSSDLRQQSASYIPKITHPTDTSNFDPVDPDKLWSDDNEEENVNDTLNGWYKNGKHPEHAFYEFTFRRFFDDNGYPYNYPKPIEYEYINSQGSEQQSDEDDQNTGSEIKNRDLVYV

SMILES: CNc1cc(Oc2cc(C(=O)Nc3cc(N4CCN(C)CC4)cc(C(F)(F)F)c3)ccc2C)ncn1
- inhibition [1]: 1.4%
- inhibition [2]: -1%

SMILES: CCN1CCN(Cc2ccc(NC(=O)c3ccc(C)c(Oc4ccnc5[nH]ccc45)c3)cc2C(F)(F)F)CC1
- inhibition [3]: inactive
- inhibition [4]: 98.4%
- inhibition [5]: 34.6%
- inhibition [6]: 10.8%

SMILES: CCN1CCN(Cc2ccc(NC(=O)c3ccc(C)c(/C=C/c4cnc5[nH]ccc5c4OC)c3)cc2C(F)(F)F)CC1
- IC50 [7]: 1200 nM
- inhibition [8]: 100%
- inhibition [9]: 80%
